Assay [1] deals with Platelet aggregation (response to collagen). Kind of assay: Platelet aggregation inhibition activity: response to intravenous collagen in mice. The format is in vivo. As to conditions: two hours before collagen 400 μg/kg i.v. The protocol:
Male CFLP mice (ca 20 g, n=8) were dosed orally with compound or vehicle (controls) after an overnight fast. Two hours later each mouse received an intravenous dose of collagen (400 μg/kg, pH 6-6.6). Exactly 30 sec. after injection of collagen, each mouse was placed in a chamber of CO2 until respiration ceased. […] Each concentration was expressed as a percent of that obtained in a tail blood sample taken immediately before injection of collagen.

The subject of assay [2] is Female CFLP mice. Kind of assay: Hypoglycaemic activity: blood glucose of fasted mice after subcutaneous glucose. The format is in vivo. As to conditions: Mus musculus, read-out: REDUCTION IN AREA UNDER BLOOD GLUCOSE CURVE (%); for inhibition in vivo at 1 µmol/kg: 1.0 μ mol/kg oral. The protocol:
Female CFLP mice, weighing approximately 25 g, were fasted for 24 hours prior to the study. The compounds under study were administered orally as an aqueous solution to each of 8 mice. 30 minutes later a blood sample ([…]) was obtained from the tail for the analysis of blood glucose. Immediately after taking this blood sample, glucose (1 g/kg body weight) was administered subcutaneously to each mouse. 8 mice were given water as a control. Blood samples were then obtained from each mouse at 30 minute intervals for 120 minutes.
Compounds that produced a significant (P<0.05) reduction on blood glucose, compared with control mice given water, at any time interval, were considered active. The area under the blood glucose curve over the 2 hour period after the administration of the glucose was calculated for each compound and compared with the value for control animals.

The next assay deals with Rat hearts. Kind of assay: Cardiac activity: rat hearts perfused by the Langendorff procedure. The protocol:
Rat hearts were perfused by the Langendorff procedure.
Hearts were dissected free within 30 seconds of death and reverse perfused via the aorta and coronary vessels with Krebs-Ringer bicarbonate solution (pH 7.4, 37° C.) gassed with 95% oxygen: 5% carbon dioxide at a flow rate between 8-12 cm^3 /minute. Responses were observed after injection of drug dissolved in isotonic saline into the perfusion media.
Results are expressed as a percentage of the maximum response due to salbutamol.

Assay [3] deals with Female CFLP mice. The assay is described as follows: Effect on energy expenditure and food intake of mice. It is filed as in vivo. As to conditions: Mus musculus, % of mice dosed with water; for response vs control in vivo at 22.9 mg/kg: 22.9 mg/kg po; for response vs control in vivo at 23.3 mg/kg: 23.3 mg/kg po; for response vs control in vivo at 24.9 mg/kg: 24.9 mg/kg po; for response vs control in vivo at 20.2 mg/kg: 20.2 mg/kg po; for response vs control in vivo at 19.1 mg/kg: 19.1 mg/kg po; for response vs control in vivo at 20.3 mg/kg: 20.3 mg/kg po; for response vs control in vivo at 22.1 mg/kg: 22.1 mg/kg po; for response vs control in vivo at 5.7 mg/kg: 5.7 mg/kg po. The protocol: Female CFLP mice each weighing approximately 24 g were given food and water ad lib before and during the experiment. The compounds were dissolved in water by addition of one mole of hydrochloric acid per mole of compound and these solutions were administered orally to each of 12 mice. A further 12 mice were dosed orally with water. The mice were placed in boxes through which air was drawn and the oxygen content of the air leaving the boxes was measured. The energy expenditure of the mice was calculated for 21 hours after dosing from the volume of air leaving the boxes and its oxygen content following the principles described by J. B. de V. Weir, J. Physiol. […] The food intake of the mice was measured over this same period of 21 hours. The results are expressed as a percentage of the mean food intake or rate of energy expenditure of the mice dosed with water.

The mark [4] stands for this setting: 30 μg added to perfusate, percentage of the maximum response due to salbutamol, read-out: HEART TENSION.
The mark [5] stands for this setting: 0-3h, read-out: MEAN ENERGY EXPENDITURE (%) 0-3h.
[6] abbreviates: 0-21h, read-out: MEAN ENERGY EXPENDITURE (%) 0-21h.
[7] abbreviates: over 21 hours, read-out: MEAN FOOD INTAKE (%).
Where [8] appears, read: 2.5 μ mol/kg oral, 2 hour period after glucose, vs control mice given water.
Setting [9] is: 30 μg added to perfusate, percentage of the maximum response due to salbutamol, read-out: HEART RATE.
Setting [10] is: 2 hour period after glucose, vs control mice given water.

Where two headings read alike, the source gives them in different places.

Turning to `CC(=O)Oc1ccccc1C(=O)O` [Aspirin, reference compound], in assay [1] (600 μ mol/kg po), the “% INHIBITION OF RESPONSE TO COLLAGEN” value is 47%.
In the case of `CC(Cc1ccc(OCCCCO)cc1)NCC(O)c1cccc(C(F)(F)F)c1` (stereo not shown) [Example 2, N-[2-(4-(4-hydroxybutoxy)phenyl)-1-methylethyl]-2-hydroxy-2-(3-trifluoromethylphenyl)ethanamine], in assay [1] (1 μ mol/kg po), the “% INHIBITION OF RESPONSE TO COLLAGEN” value worked out at 26%. The inhibition in vivo at 2.4 µmol/kg with Female CFLP mice [2] (2.4 μ mol/kg oral, 2 hour period after glucose, vs control mice given water) was found to be 57%. Besides, the Emax was determined as 22% in the assay with Rat hearts (setting [4]) and 0% in the assay on Rat hearts (read-out: HEART RATE). Moreover, the values for the response vs control in vivo at 22.9 mg/kg in the assay with Female CFLP mice [3] (setting [5]), with Female CFLP mice [3] (setting [6]) and with Female CFLP mice [3] (setting [7]) were 168%, 135% and 89%, respectively.
For the compound `CC(Cc1ccc(OCCCCCCCCCCCO)cc1)NCC(O)c1cccc(C(F)(F)F)c1` (stereo not shown) [Example 6, N-[2-(4-(11-Hydroxyundecyloxy)phenyl)1-methylethyl]-2-hydroxy-2-(3-trifluoromethylphenyl)-ethanamine], the inhibition in vivo at 2.5 µmol/kg with Female CFLP mice [2] (setting [8]) worked out at 24%. In addition, the results for the Emax in the assay on Rat hearts (setting [9]) and in the assay on Rat hearts (setting [4]) were 0% and 36%, respectively. For the same compound, the values for the response vs control in vivo at 23.3 mg/kg with Female CFLP mice [3] (setting [5]), with Female CFLP mice [3] (setting [6]) and in the assay on Female CFLP mice [3] (setting [7]) were 132%, 101% and 99%, respectively.
In the case of `CC(Cc1ccc(OC(C)(C)CO)cc1)NCC(O)c1cccc(C(F)(F)F)c1` (stereo not shown) [Example 7, N-[2-(4-(1,1-Dimethyl-2-hydroxyethoxy)phenyl)-1-methylethyl]-2-hydroxy-2-(3-trifluoromethylphenyl)-ethanamine], the inhibition in vivo at 2.5 µmol/kg in the assay on Female CFLP mice [2] (po, 2 h) was 45%. The Emax was found to be 46% with Rat hearts (setting [9]) and 29% with Rat hearts (setting [4]). In addition, the response vs control in vivo at 24.9 mg/kg with Female CFLP mice [3] (setting [5]) amounted to 145%; in the assay on Female CFLP mice [3] (setting [6]), 118%; with Female CFLP mice [3] (setting [7]), 116%.
In the case of `COc1ccc(C(O)CNC(C)Cc2ccc(OCCO)cc2)cc1F` (stereo not shown) [Example 8, N-[2-(4-(2-Hydroxyethoxy)phenyl)-1-methylethyl]-2-hydroxy-2-(3-fluoro-4-methoxyphenyl)-ethanamine], the inhibition in vivo at 12.5 µmol/kg in the assay with Female CFLP mice [2] (12.5 μ mol/kg oral, 2 hour period after glucose, vs control mice given water) amounted to 21%. The Emax with Rat hearts (setting [9]) and with Rat hearts (setting [4]) was 13% each time. Further, the values for the response vs control in vivo at 20.2 mg/kg in the assay on Female CFLP mice [3] (setting [5]), with Female CFLP mice [3] (setting [6]) and in the assay with Female CFLP mice [3] (setting [7]) were 138%, 96% and 86%, respectively.
Regarding `CC(C)(CCc1ccc(OCCO)cc1)NCC(O)c1ccccc1` (stereo not shown) [Example 9, N-[3-[4-(2-Hydroxyethoxy)phenyl]-1,1-dimethylpropyl]-2-hydroxy-2-phenylethanamine], the inhibition in vivo at 50 µmol/kg in the assay with Female CFLP mice [2] (50.0 μ mol/kg oral, 2 hour period after glucose, vs control mice given water) was 55%. Moreover, the results for the response vs control in vivo at 19.1 mg/kg in the assay with Female CFLP mice [3] (setting [5]), with Female CFLP mice [3] (setting [6]) and in the assay with Female CFLP mice [3] (setting [7]) were 102%, 98% and 91%, respectively.
For `CC(CCc1ccc(OCCO)cc1)NCC(O)c1cccc(Cl)c1` (stereo not shown) [Example 10, N-[3-(4-(2-Hydroxyethoxy)phenyl)-1-methylpropyl]-2-hydroxy-2-(3-chlorophenyl)ethanamine], the inhibition in vivo at 2.5 µmol/kg with Female CFLP mice [2] (setting [8]) was 23%. The response vs control in vivo at 20.3 mg/kg in the assay with Female CFLP mice [3] (setting [5]) was 159%; in the assay with Female CFLP mice [3] (setting [6]), 114%; in the assay with Female CFLP mice [3] (setting [7]), 88%.
`Cc1cc(CC(C)NCC(O)c2cccc(C(F)(F)F)c2)ccc1OCCO` (stereo not shown) [Example 11, N-[2-{4-(2-Hydroxyethoxy)-3-methylphenyl}-1-methylethyl]-2-hydroxy-2-(3-trifluoromethylphenyl)ethanamine]: the inhibition in vivo at 1 µmol/kg in the assay with Female CFLP mice [2] (setting [10]) was determined as 31%. Moreover, the response vs control in vivo at 22.1 mg/kg in the assay on Female CFLP mice [3] (setting [5]) is 136%; in the assay with Female CFLP mice [3] (setting [6]), 113%; in the assay on Female CFLP mice [3] (setting [7]) it was 115%.
Consider `C[C@H](Cc1ccc(OCCCCO)cc1)NC[C@H](O)c1cccc(C(F)(F)F)c1` [Example 13, N-[2-{4-(4-Hydroxybutoxy)phenyl}-1-(R)-1-methylethyl]-2-(R)-2-hydroxy-2-(3-trifluoromethylphenyl)ethanamine], for which, in the assay with Female CFLP mice [2] (setting [10]), the inhibition in vivo at 1 µmol/kg was found to be 37%. In addition, the Emax in the assay on Rat hearts (setting [9]) came to 17%; in the assay with Rat hearts (setting [4]), 47%. Also, the results for the response vs control in vivo at 5.7 mg/kg in the assay on Female CFLP mice [3] (setting [5]), with Female CFLP mice [3] (setting [6]) and with Female CFLP mice [3] (setting [7]) were 134%, 116% and 93%, respectively.
On to `CC(C)(C)NCC(O)c1ccc(O)c(CO)c1` (stereo not shown) [Salbutamol, reference compound], for which the Emax is 100% with Rat hearts (salbutamol maximum response (reference), dose not stated, read-out: HEART RATE) and 100% in the assay on Rat hearts (salbutamol maximum response (reference), dose not stated, read-out: HEART TENSION).

Values taken from patent publication US4382958A, “Secondary amines and compositions for treatment of hypoglycaemia or obesity” (priority 1980, dated 1983).
